Experimental data taken from patent US20250134907A1, “FUSED DIAZEPINES AS AGONISTS OF THE INSULIN-LIKE 3 (INSL3) PEPTIDE RECEPTOR RXFP2 AND METHODS OF USE THEREOF” (The United States of America,as represented by the …, priority 2022, published 2025).

Molecular target: T1, RXFP2 (Homo sapiens, UniProt Q8WXD0)
T1 construct: expressed in transfected cells
Test: HTRF cAMP assay in HEK293T cells stably expressing RXFP2 (HEK-RXFP2)
Assay type: cell-based
Settings: for % EFF vs. 1 nM INSL3 (b): normalized to 1 nM INSL3 cAMP response; for % EFF vs. 100 nM INSL3 (c): normalized to 100 nM INSL3 cAMP response
Method: Compound efficacy and EC50 were determined by measuring cAMP induction in vitro. HEK293T cells stably expressing RXFP2 (HEK-RXFP2) produce cAMP when RXFP2 is activated, which can be measured in an antibody-based immunoassay utilizing a fluorescent readout (cAMP Gs HiRange Kit, PerkinElmer, Waltham, MA). HEK-RXFP2 cells were seeded in 96-well plates in serum-free DMEM and incubated overnight at 37° C., 5% CO2. Plates were then treated with a compound titration up to 25 μM or INSL3 control, in the presence of isobutylmethylxanthine phosphodiesterase inhibitor (IBMX) at 200 μM to amplify the cAMP signal, for 1 hour at 37° C., 5% CO2 before being processed as per kit instructions. Table 7 lists the efficacy and EC50 of compounds tested under different experimental conditions. […] In condition (a), 20,000 cells were seeded per well in the 96 well plate, and efficacy was determined by normalizing the maximum compound cAMP response to the 1 nM INSL3 cAMP response (% Efficacy 1 nM INSL3 (a)). In condition (b), 10,000 cells were seeded per well, and compound response was normalized to the 1 nM INSL3 cAMP response (% Efficacy 1 nM INSL3 (b)). In condition (c), 7,500 cells were seeded per well, compound response was normalized to the 100 nM INSL3 cAMP response, and IBMX was omitted (% Efficacy 100 nM INSL3 (c)). A range is given when compounds were tested multiple times. Where compounds were tested under multiple experimental conditions, the EC50 listed for the corresponding condition is marked (a) through (c) to correlate. When EC50 could not be calculated from the dose-response curve, EC50 is listed as not determined (ND).

[1] = condition (b): 10,000 cells/well, IBMX 200 μM
[2] = condition (c): 7,500 cells/well, IBMX omitted

T1 sequence (Q8WXD0 whole entry): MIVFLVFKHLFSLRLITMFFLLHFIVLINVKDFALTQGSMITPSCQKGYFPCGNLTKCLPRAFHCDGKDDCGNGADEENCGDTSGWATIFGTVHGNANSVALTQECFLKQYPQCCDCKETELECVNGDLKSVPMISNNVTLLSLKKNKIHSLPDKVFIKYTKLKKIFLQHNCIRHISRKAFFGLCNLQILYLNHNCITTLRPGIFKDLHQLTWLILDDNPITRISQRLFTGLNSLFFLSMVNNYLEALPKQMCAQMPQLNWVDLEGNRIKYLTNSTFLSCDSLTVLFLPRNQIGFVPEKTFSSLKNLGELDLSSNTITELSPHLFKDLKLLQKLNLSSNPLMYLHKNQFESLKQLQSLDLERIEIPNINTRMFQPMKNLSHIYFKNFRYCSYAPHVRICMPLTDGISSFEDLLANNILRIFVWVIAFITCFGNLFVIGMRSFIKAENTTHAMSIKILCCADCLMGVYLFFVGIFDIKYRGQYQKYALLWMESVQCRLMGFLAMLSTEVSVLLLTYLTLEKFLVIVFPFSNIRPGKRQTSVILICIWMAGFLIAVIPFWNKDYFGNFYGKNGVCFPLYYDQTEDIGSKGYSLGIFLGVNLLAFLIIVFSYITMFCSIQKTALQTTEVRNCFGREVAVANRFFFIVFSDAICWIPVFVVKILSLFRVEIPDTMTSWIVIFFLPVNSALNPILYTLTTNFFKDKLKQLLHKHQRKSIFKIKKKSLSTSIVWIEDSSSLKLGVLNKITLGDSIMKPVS

Compound | EC50 [1] [nM] | % EFF vs. 1 nM INSL3 (b) [1] | % EFF vs. 100 nM INSL3 (c) [2] [%] | EC50 [2] [nM]
Cc1cc(OC(F)(F)F)ccc1OCC(=O)N1CCN2C(=O)c3cc(-c4cc(F)cc(C(F)(F)F)c4)ccc3NC(=O)[C@@H]2C1 [Example 141, (S)-8-(3-fluoro-5-(trifluoromethyl)phenyl)-2-(2-(2-methyl-4-(trifluoromethoxy)phenoxy)acetyl)-1,3,4,12a-tetrahydrobenzo[e]pyrazino[1,2-a][1,4]diazepine-6,12 (2H, 11H)-dione] | 36 to 54.5 | 95.53-115.85% | – | –
O=C1Nc2ccc(-c3cc(F)cc(C(F)(F)F)c3)cc2C(=O)N2CCN(C(=O)COc3ccc(C(F)(F)F)cc3Cl)C[C@@H]12 [Example 142, (S)-2-(2-(2-chloro-4-(trifluoromethyl)phenoxy)acetyl)-8-(3-fluoro-5-(trifluoromethyl)phenyl)-1,3,4,12a-tetrahydrobenzo[e]pyrazino[1,2-a][1,4]diazepine-6,12 (2H, 11H)-dione] | 48 | 80.32% | – | –
O=C1Nc2ccc(-c3cccc(C(F)(F)F)c3)cc2C(=O)N2CCN(C(=O)COc3ccc(C(F)(F)F)c(F)c3F)C[C@@H]12 [Example 146, (S)-2-(2-(2,3-difluoro-4-(trifluoromethyl)phenoxy)acetyl)-8-(3-(trifluoromethyl)phenyl)-1,3,4,12a-tetrahydrobenzo[e]pyrazino[1,2-a][1,4]diazepine-6,12 (2H, 11H)-dione] | – | 47.43% | – | –
Cc1cc(-c2ccc3c(c2)C(=O)N2CCN(C(=O)COc4ccc(OC(F)(F)F)cc4Cl)C[C@H]2C(=O)N3)cc(C(F)(F)F)c1 [Example 150, (S)-2-(2-(2-chloro-4-(trifluoromethoxy)phenoxy)acetyl)-8-(3-methyl-5-(trifluoromethyl)phenyl)-1,3,4,12a-tetrahydrobenzo[e]pyrazino[1,2-a][1,4]diazepine-6,12 (2H, 11H)-dione] | 22.2 | 103.32% | – | –
Cc1cc(-c2ccc3c(c2)C(=O)N2CCN(C(=O)COc4ccc(OC(F)(F)F)cc4Cl)C[C@H]2CN3)cc(C(F)(F)F)c1.O=C(O)C(F)(F)F [Example 151, (R)-2-(2-(2-chloro-4-(trifluoromethoxy)phenoxy)acetyl)-8-(3-methyl-5-(trifluoromethyl)phenyl)-1,3,4,11,12,12a-hexahydrobenzo[e]pyrazino[1,2-a][1,4]diazepin-6 (2H)-one-2,2,2-trifluoroacetate] | – | 0.85% | – | –
O=C1Nc2ccc(-c3cc(C(F)(F)F)cc(C(F)(F)F)c3)cc2C(=O)N2CCN(C(=O)COc3ccc(OC(F)(F)F)cc3Cl)C[C@@H]12 [Example 157, (S)-8-(3,5-Bis(trifluoromethyl)phenyl)-2-(2-(2-chloro-4-(trifluoromethoxy)phenoxy)acetyl)-1,3,4,12a-tetrahydrobenzo[e]pyrazino[1,2-a][1,4]diazepine-6,12 (2H, 11H)-dione] | 39.1 | 108.89% | – | –
O=C1Nc2ccc(-c3cc(Cl)cc(C(F)(F)F)c3)cc2C(=O)N2CCN(C(=O)COc3ccc(OC(F)(F)F)cc3Br)C[C@@H]12 [Example 162, (S)-2-(2-(2-Bromo-4-(trifluoromethoxy)phenoxy)acetyl)-8-(3-chloro-5-(trifluoromethyl)phenyl)-1,3,4,12a-tetrahydrobenzo[e]pyrazino[1,2-a][1,4]diazepine-6,12 (2H, 11H)-dione] | 121 | 130.93% | – | –
O=C1Nc2ccc(-c3cc(Cl)cc(C(F)(F)F)c3)cc2C(=O)N2CCN(C(=O)COc3ccc(OC(F)(F)F)cc3Cl)C[C@@H]12 [Example 163, (S)-2-(2-(2-chloro-4-(trifluoromethoxy)phenoxy)acetyl)-8-(3-chloro-5-(trifluoromethyl)phenyl)-1,3,4,12a-tetrahydrobenzo[e]pyrazino[1,2-a][1,4]diazepine-6,12 (2H, 11H)-dione] | – | 114.25% | – | –
Cc1cc(OC(F)(F)F)ccc1OCC(=O)N1CCN2C(=O)c3cc(-c4cc(Cl)cc(C(F)(F)F)c4)ccc3NC(=O)[C@@H]2C1 [Example 164, (S)-8-(3-chloro-5-(trifluoromethyl)phenyl)-2-(2-(2-methyl-4-(trifluoromethoxy)phenoxy)acetyl)-1,3,4,12a-tetrahydrobenzo[e]pyrazino[1,2-a][1,4]diazepine-6,12 (2H, 11H)-dione] | – | 126.02% | – | –
Cc1cc(OC(F)F)ccc1OCC(=O)N1CCN2C(=O)c3cc(-c4cccc(C(F)(F)F)c4)ccc3NC(=O)[C@@H]2C1 [Example 166, (S)-2-(2-(4-(difluoromethoxy)-2-methylphenoxy)acetyl)-8-(3-(trifluoromethyl)phenyl)-1,3,4,12a-tetrahydrobenzo[e]pyrazino[1,2-a][1,4]diazepine-6,12 (2H, 11H)-dione] | 236 | 132.67% | – | –
Cc1cc(OC(F)F)ccc1OCC(=O)N1CCN2C(=O)c3cc(-c4cc(C(F)(F)F)cc(C(F)(F)F)c4)ccc3NC(=O)[C@@H]2C1 [Example 167, (S)-2-(2-(4-(difluoromethoxy)-2-methylphenoxy)acetyl)-8-(3-(trifluoromethyl)-5-(trifluoromethyl)phenyl)-1,3,4,12a-tetrahydrobenzo[e]pyrazino[1,2-a][1,4]diazepine-6,12 (2H, 11H)-dione] | 142 | 113.26% | – | –
Cc1cc(-c2ccc3c(c2)C(=O)N2CCN(C(=O)COc4ccc(OC(F)F)cc4C)C[C@H]2C(=O)N3)cc(C(F)(F)F)c1 [Example 168, (S)-2-(2-(4-(Difluoromethoxy)-2-methylphenoxy)acetyl)-8-(3-methyl-5-(trifluoromethyl)phenyl)-1,3,4,12a-tetrahydrobenzo[e]pyrazino[1,2-a][1,4]diazepine-6,12 (2H, 11H)-dione] | – | 131.20% | – | –
Cc1cc(OC(F)F)ccc1OCC(=O)N1CCN2C(=O)c3cc(-c4cc(O)cc(C(F)(F)F)c4)ccc3NC(=O)[C@@H]2C1 [Example 172] | – | 70.66% | – | –
O=C1Nc2ccc(-c3cc(O)cc(C(F)(F)F)c3)cc2C(=O)N2CCN(C(=O)COc3ccc(OC(F)(F)F)cc3Br)C[C@@H]12 [Example 173, (S)-2-(2-(2-Bromo-4-(trifluoromethoxy)phenoxy)acetyl)-8-(3-hydroxy-5-(trifluoromethyl)phenyl)-1,3,4,12a-tetrahydrobenzo[e]pyrazino[1,2-a][1,4]diazepine-6,12 (2H, 11H)-dione] | 64.2 | 114.71% | – | –
Cc1cc(OC(F)F)ccc1OCC(=O)N1CCN2C(=O)c3cc(-c4cccc(C(F)F)c4)ccc3NC(=O)[C@@H]2C1 [Example 177, (S)-2-(2-(4-(difluoromethoxy)-2-methylphenoxy)acetyl)-8-(3-(difluoromethyl)phenyl)-1,3,4,12a-tetrahydrobenzo[e]pyrazino[1,2-a][1,4]diazepine-6,12 (2H, 11H)-dione] | – | – | 17.49 | –
O=C1Nc2ccc(-c3cccc(C(F)F)c3)cc2C(=O)N2CCN(C(=O)COc3ccc(OC(F)(F)F)cc3Br)C[C@@H]12 [Example 178, (S)-2-(2-(2-Bromo-4-(trifluoromethoxy)phenoxy)acetyl)-8-(3-(difluoromethyl)phenyl)-1,3,4,12a-tetrahydrobenzo[e]pyrazino[1,2-a][1,4]diazepine-6,12 (2H, 11H)-dione] | – | – | 52.68 | –
O=C1Nc2ccc(-c3cccc(C(F)F)c3)cc2C(=O)N2CCN(C(=O)COc3ccc(OC(F)(F)F)cc3Cl)C[C@@H]12 [Example 179, (S)-2-(2-(2-chloro-4-(trifluoromethoxy)phenoxy)acetyl)-8-(3-(difluoromethyl)phenyl)-1,3,4,12a-tetrahydrobenzo[e]pyrazino[1,2-a][1,4]diazepine-6,12 (2H, 11H)-dione] | – | – | 28.25 | –
Cc1cc(OC(F)(F)F)ccc1OCC(=O)N1CCN2C(=O)c3cc(-c4cccc(C(F)F)c4)ccc3NC(=O)[C@@H]2C1 [Example 180, (S)-8-(3-(difluoromethyl)phenyl)-2-(2-(2-methyl-4-(trifluoromethoxy)phenoxy)acetyl)-1,3,4,12a-tetrahydrobenzo[e]pyrazino[1,2-a][1,4]diazepine-6,12 (2H, 11H)-dione] | – | – | 23.13 | –
COc1cc(OC(F)(F)F)ccc1OCC(=O)N1CCN2C(=O)c3cc(-c4cc(C(F)(F)F)cc(C(F)(F)F)c4)ccc3NC(=O)[C@@H]2C1 [Example 185, (S)-8-(3,5-bis(trifluoromethyl)phenyl)-2-(2-(2-methoxy-4-(trifluoromethoxy)phenoxy)acetyl)-1,3,4,12a-tetrahydrobenzo[e]pyrazino[1,2-a][1,4]diazepine-6,12 (2H, 11H)-dione] | – | – | 63.16 | 452
